Measured values reported in patent publication US20060135432A1, “Agonists and antagonists of conadotropin-releasing hormone-2, and use thereof” (priority 2002, published 2006).
Values belong to the compound of their own block, whether it stands above or below them. Where a SMILES comes first, the peptide text is derived from it. [ ]: non-standard residue; d: D form. dPhe(4-Cl) = N[C@H](Cc1ccc(Cl)cc1)C(=O)O; d2Nal = N[C@H](Cc1ccc2ccccc2c1)C(=O)O; dCit = NC(=O)NCCC[C@@H](N)C(=O)O; d3Pal = N[C@H](Cc1cccnc1)C(=O)O; pGlu = O=C1CC[C@@H](C(=O)O)N1

Key:
rat GnRHR [1] = molecular target: T1, rat GnRHR (Rattus norvegicus, UniProt P30969); test: Inositol phosphate (IP) production in GH3 cells expressing rat GnRHR; format: cell-based; settings: for EC50: GH3 cells, 30 min, given as log EC50 (negative values)
T1 construct: expressed in transfected cells; host or cells: GH3 cells, retroviral infection
T1 sequence (P30969 1-327): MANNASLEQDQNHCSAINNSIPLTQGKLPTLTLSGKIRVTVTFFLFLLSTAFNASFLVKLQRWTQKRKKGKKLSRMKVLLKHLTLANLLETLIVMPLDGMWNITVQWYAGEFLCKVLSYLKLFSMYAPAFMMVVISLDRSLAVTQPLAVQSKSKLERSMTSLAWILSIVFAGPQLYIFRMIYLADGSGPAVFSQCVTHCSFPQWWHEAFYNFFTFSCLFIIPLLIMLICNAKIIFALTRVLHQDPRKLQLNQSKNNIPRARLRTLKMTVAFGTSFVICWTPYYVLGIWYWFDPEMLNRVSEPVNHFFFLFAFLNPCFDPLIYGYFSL
Description: The GnRH receptor, a membrane protein connected with the G protein, activates the G protein when activated by a ligand, and the activated G protein activates phospholipase C and thereby the synthesis of inositol phosphate (IP), which is the second transmitter in cells, is increased. Based on this principle, the activity of a receptor can be investigated by measuring the amount of IP within cells. GH3 cell lines were obtained from the Cell Line Bank at the Cancer Research Center, Seoul National University College of Medicine, located in Seoul, Republic of Korea. The GH3 cell lines were infected with retroviruses comprising genes encoding […]-2, and bfGnRHR-3 which are bullfrog GnRH receptors, and rat GnRHR, and cell lines expressing each of these receptors were obtained. The GH3 cells expressing […]-3, and rat GnRHR were cultured on 12-well plates. After 24 hours, the cells were cultured again for 24 hours in a media containing no inositol, to which H^3-myoinositol was added. […] Thereafter, they were treated with GnRH having a suitable concentration, cultured at 37° C. for another 30 minutes, and then the media was eliminated. The cells were treated with 10 mM of ice-cold formic acid to terminate the reaction, and the cell extracts were mixed with Dowex anionic exchange resins. These resins were washed with distilled water, IP was extracted with 1 M ammonium formate/0.1 M formic acid, and cpm (count per minute) was determined. The GH3 cell lines were infected with retroviruses comprising genes encoding […]-2, and bfGnRHR-3 which are bullfrog GnRH receptors, and rat GnRHR, and cell lines expressing each of these receptors were obtained.

rat GnRHR [2] = molecular target: T1, rat GnRHR; test: I125-GnRH-2 competitive ligand-receptor binding, membranes of GH3 cells expressing rat GnRHR; settings: competition with I125-GnRH-2, 4 °C, 16 hours; read-out: Binding affinity (log IC50 value) (converted)
Method: To determine the binding affinity between GnRH and GnRH receptors, GnRH-2 was radiolabeled with I^125. […] After 48 hours, the cells were homogenized to obtain cellular membranes, which were then dissolved in binding buffer (40 mM Tris, pH 7.4, 2 mM MgCl2). 20 μg of membrane proteins were reacted with I^125-GnRH-2 at 4° C. for 16 hours. […] After the reaction was completed, 1^125-GnRH-2 bound to the receptors was filtered using a Brandel harvester, and cpm was measured using a y-counter.

bfGnRHR-1 = test: Inositol phosphate (IP) production in GH3 cells expressing bfGnRHR-1; format: cell-based, bullfrog
Description: The GnRH receptor, a membrane protein connected with the G protein, activates the G protein when activated by a ligand, and the activated G protein activates phospholipase C and thereby the synthesis of inositol phosphate (IP), which is the second transmitter in cells, is increased. Based on this principle, the activity of a receptor can be investigated by measuring the amount of IP within cells. GH3 cell lines were obtained from the Cell Line Bank at the Cancer Research Center, Seoul National University College of Medicine, located in Seoul, Republic of Korea. The GH3 cell lines were infected with retroviruses comprising genes encoding […]-2, and bfGnRHR-3 which are bullfrog GnRH receptors, and rat GnRHR, and cell lines expressing each of these receptors were obtained. The GH3 cells expressing […]-3, and rat GnRHR were cultured on 12-well plates. After 24 hours, the cells were cultured again for 24 hours in a media containing no inositol, to which H^3-myoinositol was added. […] Thereafter, they were treated with GnRH having a suitable concentration, cultured at 37° C. for another 30 minutes, and then the media was eliminated. […] These resins were washed with distilled water, IP was extracted with 1 M ammonium formate/0.1 M formic acid, and cpm (count per minute) was determined. […]

Primate GnRH-2 receptor [3] = test: c-fos-luc luciferase activation in CV-1 cells expressing Primate GnRH-2 receptor; format: cell-based
Method: (§1) Complimentary DNA (cDNA) for a Primate GnRH-2 receptor was obtained from a CV-1 cell genome. […] Plasmids having Primate GnRH-2 receptors where transfected into CV-1 cells. To assay the activity of the receptor, c-fos-luc where a luciferase gene is fused with a c-fos promoter was co-transfected as a probe gene. After 48 hours from transfection, the cells were treated with GnRH-2 agonists and then the activity of luciferase was assayed (Seong et al., Endocrinology vol 144 2003, 454-466).
Of the GnRH-2 receptors, [D-Ala^6]GnRH-2 performed excellently, showing effects about 3 times that of a wild-type ligand, GnRH-2. […] When analogs where the 5th, 7th, and 8th amino acids of [D-Ala^6]GnRH-2 are substituted were used, it was observed that their effects were weaker than [D-Ala^6]GnRH-2, and therefore it can be seen that it is important to maintain His, Trp, and Tyr that are found at the 5th, 7th, and 8th positions of GnRH-2 as they are (FIG. 3b).

Primate GnRH-2 receptor [4] = test: Inhibition of GnRH-2-induced c-fos-luc luciferase activity in cells expressing Primate GnRH-2 receptor; format: cell-based; settings: treated at the same time as GnRH-2
Method: as §1
In the same manner as in 2-3 above, Primate GnRH-2 receptors were co-transfected along with c-fos-luc reporter genes, and after 48 hours, GnRH-2 and GnRH-2 antagonists were treated thereinto at the same time and then the effect of GnRH-2 antagonists was observed.

TSU-Pri cells = test: Binding of radiolabeled GnRH to TSU-Pri prostate cancer cells; design: species or system human; settings: room temperature, 6 hours
Method: TSU-Pri, which is one of the prostate cancer cell lines, was cultured along with the radiolabeled I^125GnRH-1 and I^125GnRH-2. […] The radiolabeled GnRH and the cells were cultured at room temperature for 6 hours, and then washed with PBS (phosphate-buffered saline) several times to eliminate the unbound GnRH. Thereafter, the cells were isolated and radioactivity from the cells was measured using a y-counter.

rat GnRHR [5] = molecular target: T1, rat GnRHR; test: Inhibition of GnRH-1-induced IP production in GH3 cells expressing rat GnRHR; format: cell-based
Method: GH3 cell lines were obtained from the Cell Line Bank at the Cancer Research Center, Seoul National University College of Medicine, located in Seoul, Republic of Korea. The GH3 cell lines were infected with retroviruses comprising genes encoding bfGnRHR-1, bfGnRHR-2, and bfGnRHR-3 which are bullfrog GnRH receptors, and rat GnRHR, and cell lines expressing each of these receptors were obtained. The GH3 cells expressing bfGnRHR-1, bfGnRHR-2, bfGnRHR-3, and rat GnRHR were cultured on 12-well plates. After 24 hours, the cells were cultured again for 24 hours in a media containing no inositol, to which H^3-myoinositol was added. The resultant cells were washed with buffer A (140 mM NaCl, 20 mM HEPES, 4 mM KCl, 8 mM D-Glucose, 1 mM MgCl2, 1 mM CaCl2, 1 mg/ml BSA) and then cultured in buffer A containing 10 mM LiCl at 37°C. for 30 minutes. Thereafter, they were treated with GnRH having a suitable concentration, cultured at 37° C. for another 30 minutes, and then the media was eliminated. The cells were treated with 10 mM of ice-cold formic acid to terminate the reaction, and the cell extracts were mixed with Dowex anionic exchange resins. These resins were washed with distilled water, IP was extracted with 1 M ammonium formate/0.1 M formic acid, and cpm (count per minute) was determined.
However, Trptorelix-1 could reduce the production of IP induced by 1 nM GnRH-2, in a concentration-dependent manner (FIG. 6a to FIG. 6c).

EC50 (rat GnRHR [1]): 12 nM
IC50 (rat GnRHR [2]): 97.7 nM
Compound: NC(=O)CNC(=O)[C@@H]1CCCN1C(=O)[C@H](Cc1ccc(O)cc1)NC(=O)[C@H](Cc1c[nH]c2ccccc12)NC(=O)[C@@H](Cc1c[nH]c2ccccc12)NC(=O)[C@H](Cc1c[nH]cn1)NC(=O)[C@H](CO)NC(=O)[C@H](Cc1c[nH]c2ccccc12)NC(=O)[C@H](Cc1c[nH]cn1)NC(=O)[C@@H]1CCC(=O)N1 [[D-Trp^6]GnRH-2, reference compound] ([pGlu]HWSH[dW]WYPG-NH2)
concentration activating bfGnRHR-1, fold lower than GnRH-2 (bfGnRHR-1): similar
effect reduced, fold, as compared with GnRH-2 (Primate GnRH-2 receptor [3]): ~1.2 fold

Compound: Ac-D2Nal-(4Cl)D-Phe-D-3Pal-Ser-Tyr-DCit-Trp-Leu-Pro-DAla-NH2 (Ac-[d2Nal][dPhe(4-Cl)][d3Pal]SY[dCit]WLP[dA]-NH2; SMILES CC(=O)N[C@H](Cc1ccc2ccccc2c1)C(=O)N[C@H](Cc1ccc(Cl)cc1)C(=O)N[C@H](Cc1cccnc1)C(=O)N[C@@H](CO)C(=O)N[C@@H](Cc1ccc(O)cc1)C(=O)N[C@H](CCCNC(N)=O)C(=O)N[C@@H](Cc1c[nH]c2ccccc12)C(=O)N[C@@H](CC(C)C)C(=O)N1CCC[C@H]1C(=O)N[C@H](C)C(N)=O) [Trptorelix-3]
effect on luciferase activity induced by GnRH-2 (Primate GnRH-2 receptor [4]): no effect

EC50 (rat GnRHR [1]): 8.71 nM
sensitivity compared with GnRH-1 (rat GnRHR [1]; rat GnRHR): a sensitivity lower than 10-fold
IC50 (rat GnRHR [2]): 832 nM
Compound: NC(=O)CNC(=O)[C@@H]1CCCN1C(=O)[C@H](Cc1ccc(O)cc1)NC(=O)[C@H](Cc1c[nH]c2ccccc12)NC(=O)CNC(=O)[C@H](Cc1c[nH]cn1)NC(=O)[C@H](CO)NC(=O)[C@H](Cc1c[nH]c2ccccc12)NC(=O)[C@H](Cc1c[nH]cn1)NC(=O)[C@@H]1CCC(=O)N1 [GnRH-2] ([pGlu]HWSHGWYPG-NH2)
binding of the radiolabeled ligand to TSU-Pri cells (TSU-Pri cells): binding with cells was observed
effect of unradiolabeled competitor on binding of radiolabeled GnRH-2 to TSU-Pri cells (TSU-Pri cells): the binding was reduced

Compound: CC(=O)N[C@H](Cc1ccc2ccccc2c1)C(=O)N[C@H](Cc1ccc(Cl)cc1)C(=O)N[C@H](Cc1cccnc1)C(=O)N[C@@H](CO)C(=O)N[C@@H](Cc1ccc(O)cc1)C(=O)N[C@H](CCCNC(N)=O)C(=O)N[C@@H](CC(C)C)C(=O)N[C@@H](CCCNC(=N)N)C(=O)N1CCC[C@H]1C(=O)N[C@H](C)C(N)=O [Cetrorelix, Ac-D-2Nal-(4Cl)-D-Phe-D-3Pal-Ser-Tyr-D-Cit-Leu-Arg-Pro-D-Ala-NH2, reference compound] (Ac-[d2Nal][dPhe(4-Cl)][d3Pal]SY[dCit]LRP[dA]-NH2)
effect on luciferase activity induced by GnRH-2 (Primate GnRH-2 receptor [4]): no effect
IC50 (rat GnRHR [5]): 0.00933 nM

Compound: CC(=O)N[C@H](Cc1ccc2ccccc2c1)C(=O)N[C@H](Cc1ccc(Cl)cc1)C(=O)N[C@H](Cc1cccnc1)C(=O)N[C@@H](CO)C(=O)N[C@@H](Cc1c[nH]cn1)C(=O)N[C@H](CCCNC(N)=O)C(=O)N[C@@H](Cc1c[nH]c2ccccc12)C(=O)N[C@@H](Cc1ccc(O)cc1)C(=O)N1CCC[C@H]1C(=O)N[C@H](C)C(N)=O [Trptorelix-2, Ac-D2Nal-(4Cl)D-Phe-D-3Pal-Ser-His-DCit-Trp-Tyr-Pro-DAla-NH2] (Ac-[d2Nal][dPhe(4-Cl)][d3Pal]SH[dCit]WYP[dA]-NH2)
effect on luciferase activity induced by GnRH-2 (Primate GnRH-2 receptor [4]): reduced in a concentration-dependent manner

Compound: p-Glu-His-Trp-Ser-His-D-Lys-Trp-Tyr-Pro-Gly-NH2 ([pGlu]HWSH[dK]WYPG-NH2; SMILES NCCCC[C@@H](NC(=O)[C@H](Cc1c[nH]cn1)NC(=O)[C@H](CO)NC(=O)[C@H](Cc1c[nH]c2ccccc12)NC(=O)[C@H](Cc1c[nH]cn1)NC(=O)[C@@H]1CCC(=O)N1)C(=O)N[C@@H](Cc1c[nH]c2ccccc12)C(=O)N[C@@H](Cc1ccc(O)cc1)C(=O)N1CCC[C@H]1C(=O)NCC(N)=O) [[D-Lys^6]GnRH-2]
effect reduced, fold, as compared with GnRH-2 (Primate GnRH-2 receptor [3]): about 1.5 fold

Compound: [D-Ala^6]GnRH-1: the agonist of GnRH-1 [reference compound]
sensitivity as compared with GnRH-2 (Primate GnRH-2 receptor [3]): very low sensitivity
